Experimental data from patent EP4752152A1, “STEROID COMPOUND, AND PREPARATION METHOD THEREFOR AND USE THEREOF” (Cholesgen (Shanghai) Co.Ltd., priority 2023, dated 2025).

Test system: SREBP pathway
Assay: SREBP luciferase reporter gene system (SRE-luciferase assay)
Format: cell-based, human
Conditions: Homo sapiens, Huh-7, 16 h, Huh-7/SRE-luc cells, sterol-deficient medium, 0.01-10 µM
In short: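 Huh-7 cells stably carrying LDLR promoter-luciferase plus GFP were treated 16 h in sterol-deficient medium (5% lipoprotein-deficient serum, 2 µM lovastatin, 10 µM mevalonic acid) at 0.01–10 µM. Luciferase/GFP ratio measured as pathway activity; inhibition versus DMSO fitted to a four-parameter model for IC50.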

SMILES | IC50
C[C@H](CCC[C@@H](O)c1nn(C)c2ccccc12)[C@H]1CC[C@H]2[C@H]3[C@H](CC[C@]12C)[C@@]1(C)CC[C@H](O)[C@H](O)[C@@H]1CC3(F)F [Compound 324, (1R,3aS,3bS,5aR,6R,7S,9aR,9bS,11aR)-4,4-difluoro-1-[(2R,6R)-6-hydroxy-6-(1-methylindazol-3-yl)hexan-2-yl]-9a,11a-dimethylhexadecahydro-1H-cyclopenta[1,2-a]phenanthrene-6,7-diol] | 1.51 µM
COc1cc(C(O)CCC[C@@H](C)[C@H]2CC[C@H]3[C@H]4[C@H](CC[C@]23C)[C@@]2(C)CC[C@H](O)[C@H](O)[C@@H]2CC4(F)F)cc(F)n1 (single isomer, unassigned) [Compound 247, (1R,3aS,3bS,5aR,6R,7S,9aR,9bS,11aR)-4,4-difluoro-1-[(2R,6S)-6-(6-fluoro-2-methoxypyridin-4-yl)-6-hydroxyhexan-2-yl]-9a,11a-dimethylhexadecahydro-1H-cyclopenta[1,2-a]phenanthrene-6,7-diol or (1R,3aS,3bS,5aR,6R,7S,9aR,9bS,11aR)-4,4-difluoro-1-[(2R,6R)-6-(6-fluoro-2-methoxypyridin-4-yl)-6-hydroxyhexan-2-yl]-9a,11a-dimethylhexadecahydro-1H-cyclopenta[1,2-a]phenanthrene-6,7-diol] | 0.04 µM
C[C@H](CCCC(O)c1cncc2c1cnn2C)[C@H]1CC[C@H]2[C@H]3[C@H](CC[C@]12C)[C@@]1(C)CC[C@H](O)[C@H](O)[C@@H]1CC3(F)F (stereo partly drawn) [Compound 275, (1R,3aS,3bS,5aR,6R,7 S,9aR,9bS,11aR)-4,4-Difluoro-1-[(2R)-6-hydroxy-6-(1-methylpyrazolo[3,4-c]pyridin-4-yl)hexan-2-yl]-9a,11a-dimethylhexadecahyd ro-1H-cyclopenta[1,2-a]phenanthrene-6,7-diol] | 0.26 µM
C[C@H](CCC[C@H](O)c1nc2ccccc2n1C)[C@H]1CC[C@H]2[C@H]3[C@H](CC[C@]12C)[C@@]1(C)CC[C@H](O)[C@H](O)[C@@H]1CC3(F)F [Compound 306, (1R,3aS,3bS,5aR,6R,7S,9aR,9bS,11aR)-4,4-difluoro-1-[(2R,6S)-6-hydroxy-6-(1-methylbenzo[d]imidazol-2-yl)hexan-2-yl]-9a,11a-dimethylhexadecahydro-1H-cyclopenta[1,2-a]phenanthrene-6,7-diol] | 0.121 µM
COc1cc(OC)c([C@H](O)CCC[C@@H](C)[C@H]2CC[C@H]3[C@H]4[C@H](CC[C@]23C)[C@@]2(C)CC[C@H](O)[C@H](O)[C@@H]2CC4(F)F)c(F)n1 (single isomer, unassigned) [Compound 235] | 0.115 µM
C[C@H](CCC[C@H](O)c1nnnn1C)[C@H]1CC[C@H]2[C@H]3[C@H](CC[C@]12C)[C@@]1(C)CC[C@H](O)C[C@@H]1CC3(F)F (single isomer, unassigned) [Compound 380] | 0.152 µM
COc1cc(F)nc(OC)c1C(O)CCC[C@@H](C)[C@H]1CC[C@H]2[C@H]3[C@H](CC[C@]12C)[C@@]1(C)CC[C@H](O)[C@H](O)[C@@H]1CC3(F)F (stereo partly drawn) [Compound 214, (1R,3aS,3bS,5aR,6R,7S,9aR,9bS,11aR)-4,4-difluoro-1-[(2R)-6-(6-fluoro-2,4-dimethoxypyridin-3-yl)-6-hydroxyhexan-2-yl]-9a,11a-dimethylhexadecahydro-1H-cyclopenta[1,2-a]phenanthrene-6,7-diol] | 0.183 µM
C[C@H](CCCC(O)c1ccccc1F)[C@H]1CC[C@H]2C3=C(F)C[C@H]4[C@@H](O)[C@@H](O)CC[C@]4(C)[C@H]3CC[C@]12C (stereo partly drawn) [Compound 4, (1R,3aR,5aR,6R,7S,9aR,9bR,11aR)-4-fluoro-1-[(2R)-6-(2-fluorophenyl)-6-hydroxyhexan-2-yl]-9a,11a-dimethyl-2,3,3a,5,5a,6,7,8,9,9a,9b,10,11,11a-tetradecahydro-1H-cyclopenta[1,2-a]phenanthrene-6,7-diol] | 0.09 µM
COc1ncc(F)cc1[C@H](O)CCC[C@@H](C)[C@H]1CC[C@H]2[C@H]3[C@H](CC[C@]12C)[C@@]1(C)CC[C@H](O)[C@H](O)[C@@H]1CC3(F)F (single isomer, unassigned) [Compound 231] | 0.062 µM
C[C@H](CCCC(O)c1nccs1)[C@H]1CC[C@H]2C3=C(F)C[C@H]4[C@@H](O)[C@@H](O)CC[C@]4(C)[C@H]3CC[C@]12C (stereo partly drawn) [Compound 90, (1R,3aR,5aR,6R,7S,9aR,9bR,11aR)-4-fluoro-1-[(2R)-6-hydroxy-6-(1,3-thiazol-2-yl)hexan-2-yl]-9a,11a-dimethyl-2,3,3a,5,5a,6,7,8,9,9a,9b,10,11,11a-tetradecahydro-1H-cyclopenta[1,2-a]phenanthrene-6,7-diol] | 0.379 µM
COc1cc(F)cc(F)c1[C@H](O)CCC[C@@H](C)[C@H]1CC[C@H]2C3=C(F)C[C@H]4[C@@H](O)[C@@H](O)CC[C@]4(C)[C@H]3CC[C@]12C (single isomer, unassigned) [Compound 203] | 0.174 µM
COc1nccnc1[C@H](O)CCC[C@@H](C)[C@H]1CC[C@H]2[C@H]3[C@H](CC[C@]12C)[C@@]1(C)CC[C@H](O)[C@H](O)[C@@H]1CC3(F)F [Compound 154, (1R,3aS,3bS,5aR,6R,7S,9aR,9bS,11aR)-4,4-difluoro-1-[(2R,6R)-6-hydroxy-6-(3-methoxypyrazin-2-yl)hexan-2-yl]-9a,11a-dimethylhexadecahydro-1H-cyclopenta[1,2-a]phenanthrene-6,7-diol] | 0.242 µM
COc1cccc(F)c1C(O)CCCC(C)C1CCC2C3=C(F)CC4C(O)C(O)CCC4(C)C3CCC21C (single isomer, unassigned) [Compound 163] | 0.201 µM
C[C@H](CCC[C@@H](O)c1nnnn1C)[C@H]1CC[C@H]2[C@H]3[C@H](CC[C@]12C)[C@@]1(C)CC[C@H](O)C[C@@H]1CC3(F)F (single isomer, unassigned) [Compound 381] | 0.285 µM
C[C@H](CCCC(O)c1ccc(F)nc1F)[C@H]1CC[C@H]2C3=C(F)C[C@H]4[C@@H](O)[C@@H](O)CC[C@]4(C)[C@H]3CC[C@]12C (stereo partly drawn) [Compound 147, (1R,3aR,5aR,6R,7S,9aR,9bR,11aR)-1-[(2R)-6-(2,6-difluoropyridin-3-yl)-6-hydroxyhexan-2-yl]-4-fluoro-9a,11a-dimethyl-2,3,3a,5,5a,6,7,8,9,9a,9b,10,11,11a-tetradecahydro-1H-cyclopenta[1,2-a]phenanthrene-6,7-diol] | 0.19 µM
C[C@H](CCCC(O)c1ncco1)[C@H]1CC[C@H]2[C@H]3[C@H](CC[C@]12C)[C@@]1(C)CC[C@H](O)[C@H](O)[C@@H]1CC3(F)F (stereo partly drawn) [Compound 99, (1R,3aS,3bS,5aR,6R,7S,9aR,9bS,11aR)-4,4-difluoro-1-[(2R)-6-hydroxy-6-(1,3-oxazol-2-yl)hexan-2-yl]-9a,11a-dimethylhexadecahydro-1H-cyclopenta[1,2-a]phenanthrene-6,7-diol] | 0.243 µM
C[C@H](CCCC(O)c1nnnn1C)[C@H]1CC[C@H]2[C@H]3[C@H](CC[C@]12C)[C@@]1(C)CC[C@H](O)[C@H](O)[C@@H]1CC3(F)F (stereo partly drawn) [Compound 384, (1R,3aS,3bS,5aR,6R,7 S,9aR,9bS,11aR)-4,4-Difluoro-1-[(2R)-6-hydroxy-6-(1-methyl-1,2,3,4-tetrazol-5-yl)hexan-2-yl]-9a,11a-dimethylhexadecahydro-1H-cyclopenta[1,2-a]phenanthrene-6,7-diol] | 0.185 µM
COc1cc(Cl)ccc1[C@@H](O)CCC[C@@H](C)[C@H]1CC[C@H]2[C@H]3[C@H](CC[C@]12C)[C@@]1(C)CC[C@H](O)[C@H](O)[C@@H]1CC3(F)F [Compound 112, (1R,3aS,3bS,5aR,6R,7S,9aR,9bS,11aR)-1-[(2R,6S)-6-(4-chloro-2-methoxyphenyl)-6-hydroxyhexan-2-yl]-4,4-difluoro-9a,11a-dimethylhexadecahydro-1H-cyclopenta[1,2-a]phenanthrene-6,7-diol] | 0.318 µM

Same assay, conditions: Huh-7/SRE-luc cells, sterol-deficient medium, 16 hours, 0.01-10 µM

SMILES | IC50
COc1nc(C(O)CCC[C@@H](C)[C@H]2CC[C@H]3[C@H]4[C@H](CC[C@]23C)[C@@]2(C)CC[C@H](O)[C@H](O)[C@@H]2CC4(F)F)cs1 (single isomer, unassigned) [Compound 220, (1R,3aS,3bS,5aR,6R,7S,9aR,9bS,11aR)-4,4-difluoro-1-[(2R,6R)-6-hydroxy-6-(2-methoxy-1,3-thiazol-4-yl)hexan-2-yl]-9a,11a-dimethylhexadecahydro-1H-cyclopenta[1,2-a]phenanthrene-6,7-diol or (1R,3aS,3bS,5aR,6R,7S,9aR,9bS,11aR)-4,4-difluoro-1-[(2R,6S)-6-hydroxy-6-(2-methoxy-1,3-thiazol-4-yl)hexan-2-yl]-9a,11a-dimethylhexadecahydro-1H-cyclopenta[1,2-a]phenanthrene-6,7-diol] | 0.04 µM
C[C@H](CCCC(O)c1cccc2cn[nH]c12)[C@H]1CC[C@H]2[C@H]3[C@H](CC[C@]12C)[C@@]1(C)CC[C@H](O)[C@H](O)[C@@H]1CC3(F)F (single isomer, unassigned) [Compound 269, (1R,3aS,3bS,5aR,6R,7S,9aR,9bS,11aR)-4,4-difluoro-1-[(2R,6R)-6-hydroxy-6-(1H-indazol-7-yl)hexan-2-yl]-9a,11a-dimethylhexadecahydro-1H-cyclopenta[1,2-a]phenanthrene-6,7-diol or (1R,3aS,3bS,5aR,6R,7S,9aR,9bS,11aR)-4,4-difluoro-1-[(2R,6S)-6-hydroxy-6-(1H-indazol-7-yl)hexan-2-yl]-9a,11a-dimethylhexadecahydro-1H-cyclopenta[1,2-a]phenanthrene-6,7-diol] | 0.8 µM
C[C@H](CCCC(O)c1ccc(F)nc1F)[C@H]1CC[C@H]2[C@H]3[C@H](CC[C@]12C)[C@@]1(C)CC[C@H](O)[C@H](O)[C@@H]1CC3(F)F (single isomer, unassigned) [Compound 226, (1R,3aS,3bS,5aR,6R,7S,9aR,9bS,11aR)-1-[(2R,6S)-6-(2,6-difluoropyridin-3-yl)-6-hydroxyhexan-2-yl]-4,4-difluoro-9a,11a-dimethylhexadecahydro-1H-cyclopenta[1,2-a]phenanthrene-6,7-diol or (1R,3aS,3bS,5aR,6R,7S,9aR,9bS,11aR)-1-[(2R,6R)-6-(2,6-difluoropyridin-3-yl)-6-hydroxyhexan-2-yl]-4,4-difluoro-9a,11a-dimethylhexadecahydro-1H-cyclopenta[1,2-a]phenanthrene-6,7-diol] | 0.1 µM
